In patent publication US20240262819A1, “NOVEL COMPOUNDS HAVING INHIBITORY ACTIVITY AGAINST GLUCOSYLCERAMIDE SYNTHASE OR PHARMACEUTICALLY ACCEPTABLE SALT THEREOF, PROCESSES FOR PREPARING THE SAME, AND PHARMACEUTICAL COMPOSITIONS COMPRISING THE SAME” (YUHAN CORPORATION, priority 2021, published 2024):
Where “and” joins values, the source holds several entries; their conditions need not be identical. Equal entries are not always repeated. Where two headings read alike, the source gives them in different places.

Tests used:
[1] = Evaluation of blood-brain barrier (BBB) permeability through oral administration; type: in vivo, mice; settings: mouse, in vivo
Procedure: The blood-brain barrier (BBB) permeability was evaluated in mice, with respect to the compounds according to the present invention and the control (ibiglustat). Each compound of the present invention and the control were suspended in 0.5% methyl cellulose containing 0.2% Tween 80 and then orally administered to mice at a dose of 10 or 30 mg/10 ml/kg. After the whole blood was collected from the heart of each mouse at the time of 4 hours after the administration, it was placed in a lithium heparin tube and immediately centrifuged to obtain the plasma. After the exsanguination was carried out through abdominal vena cava incision, the forebrain was taken by dissection of the head. Both of the forebrain and the plasma were stored in a −80° C. freezer until the analysis of drug concentrations therein. For the analysis of drug concentrations therein, the forebrain was immersed in distilled water and then homogenized with a homogenizer to obtain a homogenate. Each plasma and homogenate was treated with acetonitrile to precipitate proteins, vortexed for 15 seconds, and then centrifuged (12700 rpm, 10 min, 4° C.). The obtained supernatant was diluted with an 80% aqueous solution of acetonitrile containing 0.1% formic acid and then analyzed with an LC-MS/MS instrument. LC-MS/MS analysis was carried out with a reversed-phase column, using distilled water containing 0.1% formic acid and acetonitrile as mobile phases. Each eluted material was detected through a mass spectrometer to calculate the drug concentrations thereof. The brain-plasma drug ratio (B/P ratio) was calculated from the drug concentrations in each tissue to evaluate the blood-brain barrier (BBB) permeability.

[2] = system: GM1 production in Jurkat cells; assay: cells; type: cell-based
[3] = mice, oral, dose 30 mg/kg, 4 hr, read-out: Mean brain-plasma drug ratio at 4 hr
[4] = mice, oral, dose 30 mg/kg, 4 hr, read-out: Mean drug concentrations in brain tissue at 4 hr
[5] = mice, oral, dose 30 mg/kg, 4 hr, read-out: Mean drug concentrations in plasma at 4 hr

Row | Compound | IC50 ([2]; Homo sapiens, Jurkat, 72 h) [µM] | further results
1 | CC(C)(NC(=O)O[C@@H]1CN2CCC1CC2)c1csc(-c2ccc(F)cc2)n1 [Control, Ibiglustat, reference compound] | – | Kp at 4 h ([1]; po, 30 mg/kg): 0.501; concentration at 4 h ([1]; po, 30 mg/kg): 2640 ng/mL and 1320 ng/g
2 | CCc1cccc(-c2ccc3c(c2)CC(C)(C)[C@H]3NC(=O)O[C@@H]2CN3CCC2CC3)c1 [Example 1, (S)-quinuclidin-3-yl((R)-5-(3-ethylphenyl)-2,2-dimethyl-2,3-dihydro-1H-inden-1-yl)carbamate] | 0.00453 | –
3 | CC(C)c1cccc(-c2ccc3c(c2)CC(C)(C)[C@H]3NC(=O)O[C@@H]2CN3CCC2CC3)c1 [Example 2, (S)-quinuclidin-3-yl((R)-5-(3-isopropylphenyl)-2,2-dimethyl-2,3-dihydro-1H-inden-1-yl)carbamate] | 0.00375 | –
4 | CCCCc1ccc(-c2ccc3c(c2)CC(C)(C)[C@H]3NC(=O)O[C@@H]2CN3CCC2CC3)cc1 [Example 3, (S)-quinuclidin-3-yl((R)-5-(4-butylphenyl)-2,2-dimethyl-2,3-dihydro-1H-inden-1-yl)carbamate] | 0.00124 | –
5 | CCCc1ccc(-c2ccc3c(c2)CC(C)(C)[C@H]3NC(=O)O[C@@H]2CN3CCC2CC3)cc1 [Example 4, (S)-quinuclidin-3-yl((R)-2,2-dimethyl-5-(4-propylphenyl)-2,3-dihydro-1H-inden-1-yl)carbamate] | 0.00374 | –
6 | CC(C)Cc1ccc(-c2ccc3c(c2)CC(C)(C)[C@H]3NC(=O)O[C@@H]2CN3CCC2CC3)cc1 [Example 5, (S)-quinuclidin-3-yl((R)-5-(4-isobutylphenyl)-2,2-dimethyl-2,3-dihydro-1H-inden-1-yl)carbamate] | 0.00414 | –
7 | CC(C)(C)c1ccc(-c2ccc3c(c2)CC(C)(C)[C@H]3NC(=O)O[C@@H]2CN3CCC2CC3)cc1 [Example 6, (S)-quinuclidin-3-yl((R)-5-(4-(tert-butyl)phenyl)-2,2-dimethyl-2,3-dihydro-1H-inden-1-yl)carbamate] | 0.00997 | –
8 | CCOc1ccc(-c2ccc3c(c2)CC(C)(C)[C@H]3NC(=O)O[C@@H]2CN3CCC2CC3)cc1 [Example 7, (S)-quinuclidin-3-yl((R)-5-(4-ethoxyphenyl)-2,2-dimethyl-2,3-dihydro-1H-inden-1-yl)carbamate] | 0.0137 | –
9 | CC(C)COc1ccc(-c2ccc3c(c2)CC(C)(C)[C@H]3NC(=O)O[C@@H]2CN3CCC2CC3)cc1 [Example 8, (S)-quinuclidin-3-yl((R)-5-(4-isobutoxyphenyl)-2,2-dimethyl-2,3-dihydro-1H-inden-1-yl)carbamate] | 0.00109 | –
10 | CCCOc1c(C)cc(-c2ccc3c(c2)CC(C)(C)[C@H]3NC(=O)O[C@@H]2CN3CCC2CC3)cc1C [Example 9, (S)-quinuclidin-3-yl((R)-5-(3,5-dimethyl-4-propoxyphenyl)-2,2-dimethyl-2,3-dihydro-1H-inden-1-yl)carbamate] | 0.0221 | Kp at 4 h [1, 3]: 6.84; concentration at 4 h [1, 4]: 2750 ng/g; concentration at 4 h [1, 5]: 403 ng/mL
11 | Cc1cc(-c2ccc3c(c2)CC(C)(C)[C@H]3NC(=O)O[C@@H]2CN3CCC2CC3)cc(C)c1OC(C)C [Example 10, (S)-quinuclidin-3-yl((R)-5-(4-isopropoxy-3,5-dimethylphenyl)-2,2-dimethyl-2,3-dihydro-1H-inden-1-yl)carbamate] | 0.0103 | Kp at 4 h [1, 3]: 5.62; concentration at 4 h [1, 4]: 6100 ng/g; concentration at 4 h [1, 5]: 1090 ng/mL
12 | COc1ccc(-c2ccc3c(c2)CC(C)(C)[C@H]3NC(=O)O[C@@H]2CN3CCC2CC3)c(F)c1 [Example 12, (S)-quinuclidin-3-yl((R)-5-(2-fluoro-4-methoxyphenyl)-2,2-dimethyl-2,3-dihydro-1H-inden-1-yl) carbamate] | – | IC50 ([2]; read-out: IC50): 0.00594 µM
13 | CC1(C)Cc2cc(-c3ccc(OCC4CC4)nc3)ccc2[C@@H]1NC(=O)O[C@@H]1CN2CCC1CC2 [Example 13, (S)-quinuclidin-3-yl((R)-5-(6-(cyclopropylmethoxy)pyridin-3-yl)-2,2-dimethyl-2,3-dihydro-1H-inden-1-yl)carbamate] | 0.00415 | –
14 | CCCCOc1ccc(-c2ccc3c(c2)CC(C)(C)[C@H]3NC(=O)O[C@@H]2CN3CCC2CC3)cc1Cl [Example 17, (S)-quinuclidin-3-yl((R)-5-(4-butoxy-3-chlorophenyl)-2,2-dimethyl-2,3-dihydro-1H-inden-1-yl)carbamate] | 0.0206 | –
15 | CCOc1ccc(-c2ccc3c(c2)CC(C)(C)[C@H]3NC(=O)O[C@@H]2CN3CCC2CC3)cc1F [Example 19, (S)-quinuclidin-3-yl((R)-5-(4-ethoxy-3-fluorophenyl)-2,2-dimethyl-2,3-dihydro-1H-inden-1-yl)carbamate] | 0.056 | –
16 | CCOc1ccc(-c2cc3c(cc2F)[C@H](NC(=O)O[C@@H]2CN4CCC2CC4)C(C)(C)C3)cc1 [Example 56, (S)-quinuclidin-3-yl((R)-5-(4-ethoxyphenyl)-6-fluoro-2,2-dimethyl-2,3-dihydro-1H-inden-1-yl)carbamate] | 0.0107 | –
17 | CCc1ccc(-c2cc3c(cc2F)[C@H](NC(=O)O[C@@H]2CN4CCC2CC4)C(C)(C)C3)cc1 [Example 58, (S)-quinuclidin-3-yl((R)-5-(4-ethylphenyl)-6-fluoro-2,2-dimethyl-2,3-dihydro-1H-inden-1-yl)carbamate] | 0.00574 | –
18 | CCCCc1ccc(-c2cc3c(cc2F)[C@H](NC(=O)O[C@@H]2CN4CCC2CC4)C(C)(C)C3)cc1 [Example 60, (S)-quinuclidin-3-yl((R)-5-(4-butylphenyl)-6-fluoro-2,2-dimethyl-2,3-dihydro-1H-inden-1-yl)carbamate] | 0.001 | –
19 | CCCCOc1ccc(-c2cc3c(cc2F)[C@H](NC(=O)O[C@@H]2CN4CCC2CC4)C(C)(C)C3)cc1 [Example 70, (S)-quinuclidin-3-yl((R)-5-(4-butoxyphenyl)-6-fluoro-2,2-dimethyl-2,3-dihydro-1H-inden-1-yl)carbamate] | 0.0006 | –
20 | CCc1cccc(-c2cc3c(cc2F)[C@H](NC(=O)O[C@@H]2CN4CCC2CC4)C(C)(C)C3)c1 [Example 71, (S)-quinuclidin-3-yl((R)-5-(3-ethylphenyl)-6-fluoro-2,2-dimethyl-2,3-dihydro-1H-inden-1-yl)carbamate] | 0.0127 | –
21 | CC(C)c1cccc(-c2cc3c(cc2F)[C@H](NC(=O)O[C@@H]2CN4CCC2CC4)C(C)(C)C3)c1 [Example 73, (S)-quinuclidin-3-yl((R)-6-fluoro-5-(3-isopropylphenyl)-2,2-dimethyl-2,3-dihydro-1H-inden-1-yl)carbamate] | 0.0109 | –
22 | CC(C)Cc1cccc(-c2cc3c(cc2F)[C@H](NC(=O)O[C@@H]2CN4CCC2CC4)C(C)(C)C3)c1 [Example 74, (S)-quinuclidin-3-yl((R)-6-fluoro-5-(3-isobutylphenyl)-2,2-dimethyl-2,3-dihydro-1H-inden-1-yl)carbamate] | 0.0194 | –
23 | COc1cccc(-c2cc3c(cc2F)[C@H](NC(=O)O[C@@H]2CN4CCC2CC4)C(C)(C)C3)c1 [Example 75, (S)-quinuclidin-3-yl((R)-6-fluoro-5-(3-methoxyphenyl)-2,2-dimethyl-2,3-dihydro-1H-inden-1-yl)carbamate] | 0.0148 | –
24 | CCOc1cccc(-c2cc3c(cc2F)[C@H](NC(=O)O[C@@H]2CN4CCC2CC4)C(C)(C)C3)c1 [Example 76, (S)-quinuclidin-3-yl((R)-5-(3-ethoxyphenyl)-6-fluoro-2,2-dimethyl-2,3-dihydro-1H-inden-1-yl)carbamate] | 0.0334 | –
25 | CCCOc1cccc(-c2cc3c(cc2F)[C@H](NC(=O)O[C@@H]2CN4CCC2CC4)C(C)(C)C3)c1 [Example 77, (S)-quinuclidin-3-yl((R)-6-fluoro-2,2-dimethyl-5-(3-propoxyphenyl)-2,3-dihydro-1H-inden-1-yl)carbamate] | 0.0237 | –
26 | CC(C)COc1cccc(-c2cc3c(cc2F)[C@H](NC(=O)O[C@@H]2CN4CCC2CC4)C(C)(C)C3)c1 [Example 78, (S)-quinuclidin-3-yl((R)-6-fluoro-5-(3-isobutoxyphenyl)-2,2-dimethyl-2,3-dihydro-1H-inden-1-yl)carbamate] | 0.0176 | –
27 | CCCCOc1cccc(-c2cc3c(cc2F)[C@H](NC(=O)O[C@@H]2CN4CCC2CC4)C(C)(C)C3)c1 [Example 79, (S)-quinuclidin-3-yl((R)-5-(3-butoxyphenyl)-6-fluoro-2,2-dimethyl-2,3-dihydro-1H-inden-1-yl)carbamate] | 0.006 | –
28 | CCOc1c(C)cc(-c2cc3c(cc2F)[C@H](NC(=O)O[C@@H]2CN4CCC2CC4)C(C)(C)C3)cc1C [Example 80, (S)-quinuclidin-3-yl((R)-5-(4-ethoxy-3,5-dimethylphenyl)-6-fluoro-2,2-dimethyl-2,3-dihydro-1H-inden-1-yl)carbamate] | 0.051 | –
29 | CC(C)Oc1cccc(-c2cc3c(cc2F)[C@H](NC(=O)O[C@@H]2CN4CCC2CC4)C(C)(C)C3)c1 [Example 81, (S)-quinuclidin-3-yl((R)-6-fluoro-5-(3-isopropoxyphenyl)-2,2-dimethyl-2,3-dihydro-1H-inden-1-yl)carbamate] | 0.0187 | –
